Laboratory results from publication PMC6073580, “DPIE [2-(1,2-diphenyl-1H-indol-3-yl)ethanamine] Augments Pro-Inflammatory Cytokine Production in IL-1β-Stimulated Primary Human Oral Cells” (International Journal of Molecular Sciences, 2018).

Target: T1, IL-1R1 (interleukin-1 receptor, type I) (Homo sapiens, UniProt P14778)
T1 construct: gene IL1R1
T1 sequence (P14778 18-569): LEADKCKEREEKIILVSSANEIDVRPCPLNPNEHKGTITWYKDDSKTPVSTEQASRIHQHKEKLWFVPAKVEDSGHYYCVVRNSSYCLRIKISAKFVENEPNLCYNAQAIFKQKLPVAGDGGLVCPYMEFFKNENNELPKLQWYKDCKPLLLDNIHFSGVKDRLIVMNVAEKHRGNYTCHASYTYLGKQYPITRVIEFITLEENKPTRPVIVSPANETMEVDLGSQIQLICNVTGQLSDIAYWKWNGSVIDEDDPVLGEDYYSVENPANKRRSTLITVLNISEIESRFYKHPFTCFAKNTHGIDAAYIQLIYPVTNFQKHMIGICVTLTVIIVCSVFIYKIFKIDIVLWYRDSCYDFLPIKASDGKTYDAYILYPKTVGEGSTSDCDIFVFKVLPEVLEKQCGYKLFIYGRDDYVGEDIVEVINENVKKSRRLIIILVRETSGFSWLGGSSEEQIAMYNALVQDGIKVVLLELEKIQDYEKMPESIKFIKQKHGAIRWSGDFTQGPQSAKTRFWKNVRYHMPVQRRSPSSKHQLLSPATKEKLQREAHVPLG
Assay: SPR (ProteOn XPR36), IL-1R1 immobilized by amine coupling, […] Langmuir kinetic fit; equilibrium analysis gave […]
Assay type: binding

NCCc1c(-c2ccccc2)n(-c2ccccc2)c2ccccc12 [DPIE, 2-(1,2-diphenyl-1H-indol-3-yl)ethanamine]
Kd: 316 µM
